Laboratory results from patent US20240158392A1 (Janssen Biotech, Inc., priority 2021, published 2024).
Where two headings read alike, the source gives them in different places.

Target: SIK2 (Homo sapiens, UniProt Q9H0K1)
Assay: SIK2 Enzymatic Assay High Version 2 (High ATP)
Assay type: biochemical
In short: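 At room temperature, enzyme (6 nM, 2× final) was preincubated with compound for 30 min, then 6 mM ATP and 400 μM HDAC5tide (both 2× final) were added for 2 h. ADP formed was measured by ADP-Glo Max (2 h reagent, 1 h detection) using luminescence.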

[1] = enzyme 6 nM, 6 mM ATP and 400 μM HDAC5tide (each 2× final concentration), 30 minutes pre-incubation, 2 hours, ADP-Glo Max luminescence, read-out: SIK2 high ATP IC50 (μM) (Test Example 2)

Chain of SIK2 (Q9H0K1 whole entry, species assumed): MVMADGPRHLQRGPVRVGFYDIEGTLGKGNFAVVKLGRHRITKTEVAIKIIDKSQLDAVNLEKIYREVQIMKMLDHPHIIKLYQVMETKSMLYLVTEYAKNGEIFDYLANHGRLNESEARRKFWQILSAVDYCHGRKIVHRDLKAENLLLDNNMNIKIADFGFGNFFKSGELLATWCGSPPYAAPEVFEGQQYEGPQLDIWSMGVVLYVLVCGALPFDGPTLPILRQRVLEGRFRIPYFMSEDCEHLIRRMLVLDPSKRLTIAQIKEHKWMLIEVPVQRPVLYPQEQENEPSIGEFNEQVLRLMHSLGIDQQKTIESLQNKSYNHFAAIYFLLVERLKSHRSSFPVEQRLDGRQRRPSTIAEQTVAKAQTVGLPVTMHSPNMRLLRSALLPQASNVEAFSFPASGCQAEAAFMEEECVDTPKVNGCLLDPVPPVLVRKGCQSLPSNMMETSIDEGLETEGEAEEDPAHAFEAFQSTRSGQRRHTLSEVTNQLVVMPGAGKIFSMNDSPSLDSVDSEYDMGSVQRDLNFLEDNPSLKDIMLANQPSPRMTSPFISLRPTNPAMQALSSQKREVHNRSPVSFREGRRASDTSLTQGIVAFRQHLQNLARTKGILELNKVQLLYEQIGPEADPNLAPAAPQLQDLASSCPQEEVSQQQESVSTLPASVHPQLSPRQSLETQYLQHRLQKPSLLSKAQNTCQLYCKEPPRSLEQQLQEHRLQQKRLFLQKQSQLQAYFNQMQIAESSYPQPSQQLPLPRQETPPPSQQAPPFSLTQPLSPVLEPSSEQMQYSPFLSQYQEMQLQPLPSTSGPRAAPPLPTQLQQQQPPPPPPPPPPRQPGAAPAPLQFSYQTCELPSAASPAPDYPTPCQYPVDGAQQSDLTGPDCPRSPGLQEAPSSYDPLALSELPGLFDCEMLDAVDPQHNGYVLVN

IC50 [1]	SMILES	IC50
0.00758 µM	CCc1nc(C)cc(Nc2cc3cc(-c4cc(C)ncc4OCC(C)(C)O)ccn3n2)n1 [Example 202, 1-[[4-[2-[(2-ethyl-6-methyl-pyrimidin-4-yl)amino]pyrazolo[1,5-a]pyridin-5-yl]-6-methyl-3-pyridyl]oxy]-2-methyl-propan-2-ol]	
0.00247 µM	Cc1cc(-c2ccn3nc(NC(=O)C4CC4)cc3c2)c(OC2CCC(O)(C(C)C)CC2)cn1 (stereo not shown) [Example 196]	
0.0998 µM	Cc1cc(-c2ccn3nc(Nc4cc(C)nc(C)n4)cc3c2)c(O[C@H]2CCOC(C)(C)C2)cn1 (single isomer, unassigned) [Example 578, (*S)—N-(2,6-dimethylpyrimidin-4-yl)-5-[5-(2,2-dimethyltetrahydropyran-4-yl)oxy-2-methyl-4-pyridyl]pyrazolo[1,5-a]pyridin-2-amine]	
	Cc1cc(-c2ccn3nc(NC(=O)C4CC4)cc3c2)c(OC[C@H]2CCN2C)cn1 [Example 468, N-[5-[2-methyl-5-[[(2R)-1-methylazetidin-2-yl]methoxy]-4-pyridyl]pyrazolo[1,5-a]pyridin-2-yl]cyclopropanecarboxamide]	0.00813 µM
	Cc1cc(Nc2cc3cc(-c4cc(C)ncc4O[C@H]4C[C@H]5COC[C@@H](C4)N5C)ccn3n2)ncn1 [Example 421, 5-[2-methyl-5-[[(1R,5S,7s)-9-methyl-3-oxa-9-azabicyclo[3.3.1]nonan-7-yl]oxy]-4-pyridyl]-N-(6-methylpyrimidin-4-yl)pyrazolo[1,5-a]pyridin-2-amine]	0.0122 µM
	Cc1cc(-c2ccn3nc(NC(=O)C4CC4)cc3c2)c(OC[C@H]2CCN2CC(F)(F)F)cn1 [Example 452, N-[5-[2-methyl-5-[[(2R)-1-(2,2,2-trifluoroethyl)azetidin-2-yl]methoxy]-4-pyridyl]pyrazolo[1,5-a]pyridin-2-yl]cyclopropanecarboxamide]	0.015 µM
0.0306 µM	Cc1cc(-c2ccn3nc(Nc4ccc(C(=O)NC(C)C)c(C)c4)cc3c2)c(OCC(C)(C)O)cn1 [Example 345, 4-[[5-[5-(2-hydroxy-2-methyl-propoxy)-2-methyl-4-pyridyl]pyrazolo[1,5-a]pyridin-2-yl]amino]-N-isopropyl-2-methyl-benzamide]	
0.175 µM	Cc1cc(-c2ccn3nc(Nc4cc(C)nc(C)n4)cc3c2)c(OC[C@@H]2CN(S(C)(=O)=O)CCO2)cn1 [Example 629, N-(2,6-dimethylpyrimidin-4-yl)-5-[2-methyl-5-[[(2S)-4-methylsulfonylmorpholin-2-yl]methoxy]-4-pyridyl]pyrazolo[1,5-a]pyridin-2-amine]	
	Cc1cc(-c2ccn3nc(Nc4ccc(F)cn4)cc3c2)c(O[C@H]2C[C@H]3COC[C@@H](C2)N3)cn1 [Example 127, 5-(5-(((1R,5S,7s)-3-oxa-9-azabicyclo[3.3.1]nonan-7-yl)oxy)-2-methylpyridin-4-yl)-N-(5-fluoropyridin-2-yl)pyrazolo[1,5-a]pyridin-2-amine]	< 0.000847 µM
	Cc1cc(-c2ccn3nc(Nc4cc(C)nc(C)n4)cc3c2)c(O[C@@H]2[C@@H]3CO[C@H]2CN3)cn1 [Example 524, N-(2,6-dimethylpyrimidin-4-yl)-5-[2-methyl-5-[[(1S,4S,7R)-2-oxa-5-azabicyclo[2.2.1]heptan-7-yl]oxy]-4-pyridyl]pyrazolo[1,5-a]pyridin-2-amine]	0.0203 µM
0.0535 µM	Cc1cc(-c2ccn3nc(Nc4cc(C)nc(C)n4)cc3c2)c(OC[C@@]2(C)CCOC2)cn1 (single isomer, unassigned) [Example 536, (*S)—N-(2,6-dimethylpyrimidin-4-yl)-5-[2-methyl-5-[(3-methyltetrahydrofuran-3-yl)methoxy]-4-pyridyl]pyrazolo[1,5-a]pyridin-2-amine]	
0.0217 µM	Cc1cc(-c2ccn3nc(NC(=O)[C@@H]4C[C@H]4C)cc3c2)c(OC[C@]23C[C@H](CO2)N(C)C3)cn1 [Example 250, (1R,2R)-2-methyl-N-[5-[2-methyl-5-[[(1R,4R)-2-methyl-5-oxa-2-azabicyclo[2.2.1]heptan-4-yl]methoxy]-4-pyridyl]pyrazolo[1,5-a]pyridin-2-yl]cyclopropanecarboxamide]	
	Cc1cc(-c2ccn3nc(Nc4cnc(C(F)(F)F)cn4)cc3c2)c(O[C@H]2C[C@H]3COC[C@@H](C2)N3)cn1 [Example 375, 5-(5-(((1R,5S,7s)-3-oxa-9-azabicyclo[3.3.1]nonan-7-yl)oxy)-2-methylpyridin-4-yl)-N-(5-(trifluoromethyl)pyrazin-2-yl)pyrazolo[1,5-a]pyridin-2-amine]	0.00115 µM
0.0666 µM	Cc1cc(-c2ccn3nc(Nc4cc(C)nc(C)n4)cc3c2)c(OC2CC(NS(C)(=O)=O)C2)cn1 (stereo not shown) [Example 579, N-[3-[[4-[2-[(2,6-dimethylpyrimidin-4-yl)amino]pyrazolo[1,5-a]pyridin-5-yl]-6-methyl-3-pyridyl]oxy]cyclobutyl]methanesulfonamide]	
0.013 µM	Cc1cc(-c2ccn3nc(NC(=O)C4CC4)cc3c2)c(OC[C@@]2(O)CCN(C)C2)cn1 (single isomer, unassigned) [Example 522, (*R)—N-[5-[5-[(3-hydroxy-1-methyl-pyrrolidin-3-yl)methoxy]-2-methyl-4-pyridyl]pyrazolo[1,5-a]pyridin-2-yl]cyclopropanecarboxamide]	
0.00171 µM	COC(=O)c1ccc(Nc2cc3cc(-c4cc(C)ncc4OCC(C)(C)O)ccn3n2)cc1OC [Example 642, methyl 4-[[5-[5-(2-hydroxy-2-methyl-propoxy)-2-methyl-4-pyridyl]pyrazolo[1,5-a]pyridin-2-yl]amino]-2-methoxy-benzoate]	
0.0261 µM	Cc1cc(Nc2cc3cc(-c4cc(O[C@H](C)C#N)ncc4O[C@H]4CC[C@H](O)CC4)ccn3n2)nc(C)n1 (relative stereo) [Example 721, (*R)-2-[[4-[2-[(2,6-dimethylpyrimidin-4-yl)amino]pyrazolo[1,5-a]pyridin-5-yl]-5-(4-hydroxycyclohexoxy)-2-pyridyl]oxy]propanenitrile]	
0.0142 µM	Cc1cc(-c2ccn3nc(Nc4cc(C)nc(C)n4)cc3c2)c(OC[C@@H]2CC3(CCC3)CO2)cn1 (single isomer, unassigned) [Example 220, (*S)-5-(5-((6-oxaspiro[3.4]octan-7-yl)methoxy)-2-methylpyridin-4-yl)-N-(2,6-dimethylpyrimidin-4-yl)pyrazolo[1,5-a]pyridin-2-amine]	
0.00231 µM	Cc1cc(-c2ccn3nc(Nc4cc(C)nc(C)n4)cc3c2)c(OCC(C)(C)C#N)cn1 [Example 262, 3-[[4-[2-[(2,6-dimethylpyrimidin-4-yl)amino]pyrazolo[1,5-a]pyridin-5-yl]-6-methyl-3-pyridyl]oxy]-2,2-dimethyl-propanenitrile]	
	Cc1cc(-c2cn3cc(Nc4cc(C)nc(C)n4)nc3cn2)c(O[C@H]2C[C@H]3COC[C@@H](C2)N3)cn1 [Example 350, N-(2,6-dimethylpyrimidin-4-yl)-6-[2-methyl-5-[[(1R,5S)-3-oxa-9-azabicyclo[3.3.1]nonan-7-yl]oxy]-4-pyridyl]imidazo[1,2-a]pyrazin-2-amine]	0.0403 µM
	Cc1cc(-c2ccn3nc(Nc4ccc(C(=O)NCC5CCOCC5)cn4)cc3c2)c(O[C@H]2C[C@H]3COC[C@@H](C2)N3)cn1 [Example 373, 6-[[5-[2-methyl-5-[[(1R,5S,7s)-3-oxa-9-azabicyclo[3.3.1]nonan-7-yl]oxy]-4-pyridyl]pyrazolo[1,5-a]pyridin-2-yl]amino]-N-(tetrahydropyran-4-ylmethyl)pyridine-3-carboxamide]	< 0.000847 µM
	Cc1cc(-c2ccn3nc(NC(=O)C4CC4)cc3c2)c(O[C@@H]2[C@@H]3CO[C@H]2CN3)cn1 [Example 165, N-(5-(5-(((1S,4S,7R)-2-oxa-5-azabicyclo[2.2.1]heptan-7-yl)oxy)-2-methylpyridin-4-yl)pyrazolo[1,5-a]pyridin-2-yl)cyclopropanecarboxamide]	0.00823 µM
0.00358 µM	Cc1cc(Nc2cc3cc(-c4cc(OC(F)F)ncc4OCC(C)(C)C#N)ccn3n2)nc(C)n1 [Example 329, 3-[[6-(difluoromethoxy)-4-[2-[(2,6-dimethylpyrimidin-4-yl)amino]pyrazolo[1,5-a]pyridin-5-yl]-3-pyridyl]oxy]-2,2-dimethyl-propanenitrile]	
0.00696 µM	Cc1cc(-c2ccn3nc(Nc4cc(C)nc(N5CCOCC5)n4)cc3c2)c(O[C@H]2CC[C@H](O)CC2)cn1 [Example 288, 4-[[6-methyl-4-[2-[(6-methyl-2-morpholino-pyrimidin-4-yl)amino]pyrazolo[1,5-a]pyridin-5-yl]-3-pyridyl]oxy]cyclohexanol]	
0.204 µM	CC#Cc1cc(-c2ccn3nc(Nc4cc(C)nc(C)n4)cc3c2)c(OC[C@@H]2OCC[C@H]2O)cn1 [Example 671, (2S,3R)-2-[[4-[2-[(2,6-dimethylpyrimidin-4-yl)amino]pyrazolo[1,5-a]pyridin-5-yl]-6-prop-1-ynyl-3-pyridyl]oxymethyl]tetrahydrofuran-3-ol]	
0.0381 µM	CCc1cc(-c2ccn3nc(Nc4cc(C)nc(C)n4)cc3c2)c(OCC(C)(C)C#N)cn1 [Example 328, 3-[[4-[2-[(2,6-dimethylpyrimidin-4-yl)amino]pyrazolo[1,5-a]pyridin-5-yl]-6-ethyl-3-pyridyl]oxy]-2,2-dimethyl-propanenitrile]	
0.0102 µM	Cc1cc(Nc2cc3cc(-c4cc(OC(F)F)ncc4OCC(C)(C)C#N)ccn3n2)nn(C)c1=O [Example 684, 3-[[6-(difluoromethoxy)-4-[2-[(1,5-dimethyl-6-oxo-pyridazin-3-yl)amino]pyrazolo[1,5-a]pyridin-5-yl]-3-pyridyl]oxy]-2,2-dimethyl-propanenitrile]	
0.0145 µM	Cc1cc(-c2ccn3nc(Nc4cc(C)nc(C)n4)cc3c2)c(O[C@H]2COC[C@H]2C)cn1 (single isomer, unassigned) [Example 534, (3*R, 4*R)—N-(2,6-dimethylpyrimidin-4-yl)-5-[2-methyl-5-(4-methyltetrahydrofuran-3-yl)oxy-4-pyridyl]pyrazolo[1,5-a]pyridin-2-amine]	
